Reference: ChEMBL document CHEMBL1201862, “PubChem BioAssay data set” (2004)
Structures can show the parent of a compound that is named as a salt.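 The compound was tested at five concentrations on cells cultured in 96-well plates, with a 48-hour exposure period. The concentration for 50% growth inhibition is given as GI50.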 Activity calls are given as the source filed them. Cut-off read from the data, not from the text of the source: active = GI50 up to about 1.1 µM and inactive = higher.

Tests used:
Test in all cases: DTP human tumour cell line panel, 48 h
A498 = system: A498
A549 = system: A549
CAKI-1 = system: CAKI-1
CCRF-CEM = system: CCRF-CEM
COLO 205 = system: COLO 205
DLD-1 = system: DLD-1
DMS-114 = system: DMS-114
DMS-273 = system: DMS-273
EKVX = system: EKVX
HCC 2998 = system: HCC 2998
HCT-116 = system: HCT-116
HCT-15 = system: HCT-15
HL-60 = system: HL-60
HOP-18 = system: HOP-18
HOP-62 = system: HOP-62
HOP-92 = system: HOP-92
HT-29 = system: HT-29
IGROV-1 = system: IGROV-1
K562 = system: K562
KM-20L2 = system: KM-20L2
KM12 = system: KM12
LOX IMVI = system: LOX IMVI
M19-MEL = system: M19-MEL
MCF7 = system: MCF7
MOLT-4 = system: MOLT-4
Malme-3M = system: Malme-3M
NCI-H226 = system: NCI-H226
NCI-H23 = system: NCI-H23
NCI-H460 = system: NCI-H460
NCI-H522 = system: NCI-H522
NCI/ADR-RES = system: NCI/ADR-RES
OVCAR-3 = system: OVCAR-3
OVCAR-4 = system: OVCAR-4
OVCAR-5 = system: OVCAR-5
OVCAR-8 = system: OVCAR-8
RPMI-8226 = system: RPMI-8226
RXF 393 = system: RXF 393
SF-268 = system: SF-268
SF-295 = system: SF-295
SF-539 = system: SF-539
SK-MEL-28 = system: SK-MEL-28
SK-MEL-2 = system: SK-MEL-2
SK-MEL-5 = system: SK-MEL-5
SK-OV-3 = system: SK-OV-3
SN12C = system: SN12C
SNB-19 = system: SNB-19
SNB-75 = system: SNB-75
SNB-78 = system: SNB-78
SW-620 = system: SW-620
U-251 = system: U-251
UACC-257 = system: UACC-257
UACC-62 = system: UACC-62
UO-31 = system: UO-31
XF498 = system: XF498
BT-549 = system: BT-549
DU-145 = system: DU-145
MDA-MB-435 = system: MDA-MB-435
MDA-N = system: MDA-N
PC-3 = system: PC-3
SR = system: SR
T47D = system: T47D
TK-10 = system: TK-10

**Q.** Which GI50 (A498) does the source give for `COC(=O)C1C(O)C(C)C(O)OC1C(C)C(O)C(C)/C=C\C=C(/C)C(=O)Nc1c(C)c(OC(C)=O)c2c(c1O)C(=O)C(C)=C1OCOC(/C(C)=C/C(C)=O)=C12` (centres undefined) here?
**A.** 15.2 µM (inactive)

**Q.** And the GI50 (A549)?
**A.** 15.1 µM (inactive)

**Q.** What about the GI50 (CAKI-1) of the same molecule?
**A.** 17.6 µM (inactive)

**Q.** What about the GI50 (CCRF-CEM) of the same molecule?
**A.** 5.96 µM (inactive)

**Q.** And the GI50 (COLO 205)?
**A.** 8.99 µM (inactive)

**Q.** And the GI50 (DLD-1)?
**A.** 8.93 µM (inactive)

**Q.** What about the GI50 (DMS-114) of the same molecule?
**A.** 10.1 µM (inactive)

**Q.** What about the GI50 (DMS-273) of the same molecule?
**A.** 13.3 µM (inactive)

**Q.** And the GI50 (EKVX)?
**A.** 11.9 µM (inactive)

**Q.** What about the GI50 (HCC 2998) of the same molecule?
**A.** 13.9 µM (inactive)

**Q.** And the GI50 (HCT-116)?
**A.** 9.53 µM (inactive)

**Q.** And the GI50 (HCT-15)?
**A.** 14.3 µM

**Q.** And the GI50 (HL-60)?
**A.** 3.1 µM (inactive)

**Q.** What about the GI50 (HOP-18) of the same molecule?
**A.** 15.2 µM (inactive)

**Q.** What about the GI50 (HOP-62) of the same molecule?
**A.** 11.6 µM (inactive)

**Q.** And the GI50 (HOP-92)?
**A.** 12.8 µM (inactive)

**Q.** And the GI50 (HT-29)?
**A.** 14.5 µM (inactive)

**Q.** And the GI50 (IGROV-1)?
**A.** 12.6 µM (inactive)

**Q.** What about the GI50 (K562) of the same molecule?
**A.** 16.5 µM (inactive)

**Q.** And the GI50 (KM-20L2)?
**A.** 12.9 µM (inactive)

**Q.** And the GI50 (KM12)?
**A.** 14 µM (inactive)

**Q.** And the GI50 (LOX IMVI)?
**A.** 13.7 µM (inactive)

**Q.** And the GI50 (M19-MEL)?
**A.** 13.3 µM (inactive)

**Q.** And the GI50 (MCF7)?
**A.** 13.9 µM (inactive)

**Q.** What about the GI50 (MOLT-4) of the same molecule?
**A.** 10.7 µM (inactive)

**Q.** And the GI50 (Malme-3M)?
**A.** 13.5 µM (inactive)

**Q.** And the GI50 (NCI-H226)?
**A.** 12.4 µM (inactive)

**Q.** What about the GI50 (NCI-H23) of the same molecule?
**A.** 14.2 µM (inactive)

**Q.** And the GI50 (NCI-H460)?
**A.** 13.7 µM (inactive)

**Q.** What about the GI50 (NCI-H522) of the same molecule?
**A.** 2.25 µM (inactive)

**Q.** What about the GI50 (NCI/ADR-RES) of the same molecule?
**A.** 15.1 µM (inactive)

**Q.** And the GI50 (OVCAR-3)?
**A.** 9.38 µM (inactive)

**Q.** What about the GI50 (OVCAR-4) of the same molecule?
**A.** 12.1 µM (inactive)

**Q.** And the GI50 (OVCAR-5)?
**A.** 13.5 µM (inactive)

**Q.** And the GI50 (OVCAR-8)?
**A.** 13.7 µM (inactive)

**Q.** What about the GI50 (RPMI-8226) of the same molecule?
**A.** 9.48 µM (inactive)

**Q.** What about the GI50 (RXF 393) of the same molecule?
**A.** 13 µM (inactive)

**Q.** And the GI50 (SF-268)?
**A.** 3.08 µM (inactive)

**Q.** What about the GI50 (SF-295) of the same molecule?
**A.** 14.9 µM (inactive)

**Q.** What about the GI50 (SF-539) of the same molecule?
**A.** 13.2 µM (inactive)

**Q.** And the GI50 (SK-MEL-28)?
**A.** 2.99 µM (inactive)

**Q.** What about the GI50 (SK-MEL-2) of the same molecule?
**A.** 12.6 µM (inactive)

**Q.** And the GI50 (SK-MEL-5)?
**A.** 12.8 µM (inactive)

**Q.** What about the GI50 (SK-OV-3) of the same molecule?
**A.** 20 µM (inactive)

**Q.** What about the GI50 (SN12C) of the same molecule?
**A.** 12.4 µM (inactive)

**Q.** And the GI50 (SNB-19)?
**A.** 15.1 µM (inactive)

**Q.** And the GI50 (SNB-75)?
**A.** 3.77 µM (inactive)

**Q.** And the GI50 (SNB-78)?
**A.** 13.2 µM (inactive)

**Q.** And the GI50 (SW-620)?
**A.** 9.53 µM (inactive)

**Q.** And the GI50 (U-251)?
**A.** 14.4 µM (inactive)

**Q.** And the GI50 (UACC-257)?
**A.** 12.5 µM (inactive)

**Q.** And the GI50 (UACC-62)?
**A.** 14.3 µM (inactive)

**Q.** And the GI50 (UO-31)?
**A.** 16.4 µM (inactive)

**Q.** What about the GI50 (XF498) of the same molecule?
**A.** 13.8 µM (inactive)

**Q.** Which GI50 (A498) does the source give for `CCN(CC)CCNc1ccc(CO)c2sc3ccccc3c(=O)c12` [HYCANTHONE MESYLATE] here?
**A.** 6.1 µM (inactive)

**Q.** And the GI50 (A549)?
**A.** 5.08 µM (inactive)

**Q.** What about the GI50 (BT-549) of the same molecule?
**A.** 13.5 µM (inactive)

**Q.** And the GI50 (CAKI-1)?
**A.** 9.02 µM (inactive)

**Q.** What about the GI50 (DMS-114) of the same molecule?
**A.** 8.71 µM (inactive)

**Q.** What about the GI50 (DMS-273) of the same molecule?
**A.** 5.57 µM (inactive)

**Q.** And the GI50 (DU-145)?
**A.** 9.57 µM (inactive)

**Q.** What about the GI50 (EKVX) of the same molecule?
**A.** 10.5 µM (inactive)

**Q.** What about the GI50 (HCT-116) of the same molecule?
**A.** 3.34 µM (inactive)

**Q.** And the GI50 (HOP-92)?
**A.** 2.75 µM (inactive)

**Q.** And the GI50 (KM-20L2)?
**A.** 8.2 µM (inactive)

**Q.** And the GI50 (M19-MEL)?
**A.** 13.3 µM (inactive)

**Q.** And the GI50 (MDA-MB-435)?
**A.** 3.27 µM (inactive)

**Q.** And the GI50 (MDA-N)?
**A.** 5.12 µM (inactive)

**Q.** What about the GI50 (MOLT-4) of the same molecule?
**A.** 1.63 µM (inactive)

**Q.** And the GI50 (NCI-H226)?
**A.** 8.91 µM (inactive)

**Q.** And the GI50 (NCI-H23)?
**A.** 9.48 µM (inactive)

**Q.** What about the GI50 (NCI-H460) of the same molecule?
**A.** 3.05 µM (inactive)

**Q.** And the GI50 (NCI-H522)?
**A.** 3.78 µM (inactive)

**Q.** What about the GI50 (OVCAR-4) of the same molecule?
**A.** 4.45 µM (inactive)

**Q.** And the GI50 (OVCAR-5)?
**A.** 6.95 µM (inactive)

**Q.** What about the GI50 (OVCAR-8) of the same molecule?
**A.** 5.15 µM (inactive)

**Q.** And the GI50 (PC-3)?
**A.** 5.81 µM (inactive)

**Q.** What about the GI50 (RPMI-8226) of the same molecule?
**A.** 12.9 µM (inactive)

**Q.** What about the GI50 (RXF 393) of the same molecule?
**A.** 5.19 µM (inactive)

**Q.** What about the GI50 (SF-268) of the same molecule?
**A.** 6.7 µM (inactive)

**Q.** And the GI50 (SF-295)?
**A.** 8.26 µM (inactive)

**Q.** And the GI50 (SF-539)?
**A.** 11 µM (inactive)

**Q.** What about the GI50 (SK-MEL-28) of the same molecule?
**A.** 9.68 µM (inactive)

**Q.** And the GI50 (SNB-19)?
**A.** 11.4 µM (inactive)

**Q.** And the GI50 (SNB-78)?
**A.** 13.4 µM (inactive)

**Q.** And the GI50 (SR)?
**A.** 2.83 µM (inactive)

**Q.** What about the GI50 (SW-620) of the same molecule?
**A.** 2.75 µM (inactive)

**Q.** What about the GI50 (T47D) of the same molecule?
**A.** 11.5 µM (inactive)

**Q.** And the GI50 (TK-10)?
**A.** 12.1 µM (inactive)

**Q.** What about the GI50 (U-251) of the same molecule?
**A.** 8.89 µM (inactive)

**Q.** And the GI50 (UACC-257)?
**A.** 11.6 µM (inactive)

**Q.** And the GI50 (UACC-62)?
**A.** 14.7 µM (inactive)

**Q.** And the GI50 (UO-31)?
**A.** 4.1 µM (inactive)

**Q.** And the GI50 (XF498)?
**A.** 11.6 µM (inactive)
